The source of these data is patent publication US10278948B1, “Method for transnasal delivery of anticonvulsant and therapeutic treatments” (priority 2015, dated 2019).

The conditions of series [1]: cited from earlier work.
For series [2] the following is noted: cited from earlier work; for mean percent weight loss from baseline to week 24: placebo −2.6%.
A short description of series [3]: Transnasal administration of topiramate to the sphenopalatine ganglion in human patients (Example 1). The class given is in vivo. From the text: The devices and methods described above were applied to the treatment of human patients for headache pain, when the inventor observed a dramatic effect with regard to treating obesity and promoting weight-loss. The results of this testing are surprising and unexpected in view of efficacy of the very low dosages administered as compared to published treatment regimens using topiramate without any co-delivered medicament for the treatment of obesity. […] The method of treatment was as follows: Topiramate was dissolved in sterile water to a concentration of 5 mg/mL. Then, 0.3 mL of this solution (1.5 mg of topiramate) per nostril was administered transnasally to the sphenopalatine ganglion using a Tx360® nasal applicator (from Tian Medical of Lombard, Ill.) in the manner described above with reference to the devices shown in FIGS. 6-11B and the relative distal-end anatomic positioning described with reference to FIGS. 4-5. This dosage was administered once per week for four weeks. Each patient lost between 5% and 10% of his/her body weight over the four-week period. […] It is expected that dosage may be effective for headache pain and for promoting weight loss as treatment for obesity at a frequency from once or twice per day to once per month when administered at […] delivered as about 0.2-0.3 mL per nostril toward the SPG. Although this sample is very small, it compares highly favorably to published studies using topiramate for weight loss, and the effective dosage was surprising far lower than the effective dosages reported in the literature. As a first example, in Obesity Review 2011 May; 12(5):e338-47. doi: 10.1111/j.1467-789X.2010.00846.x. Epub 2011 Mar. 28. Efficacy and safety of topiramate on weight loss: a meta-analysis of randomized controlled trials, ten clinical studies (3320 individuals) were evaluated, each of which was a randomized controlled study with at least 16 weeks of duration that reported the effect of topiramate on weight loss and adverse events using topiramate at 96-200 mg/day. […] Although the etiology is not apparent, a highly reasonable hypothesis is that the side effects and lack thereof, respectively, may be related to the significant dosage difference and/or administration mode (96-200 mg/day perorally versus 3 mg/week transnasally).

The conditions of series [4]: 96-200 mg/day perorally, at least 16 weeks, ten clinical studies (3320 individuals); cited from earlier work.
Where [5] appears, read: every patient, after the first dosage, 3 mg transnasally to the SPG.

SMILES strings stand for the structures. Like-named read-outs stand apart in the source and are kept apart here.

For the compound `CC1(C)O[C@@H]2[C@@H](CO[C@@]3(COS(N)(=O)=O)OC(C)(C)O[C@@H]23)O1` [topiramate, 2,3:4,5-bis-O-(1-methylethylidene)-β-D-fructopyranose sulfamate], the solubility in water result in series [1] is on record as “up to 9.8 mg/mL”. Besides, the “mean percent weight loss from baseline to week 24” value in series [2] (64 mg/day topiramate group) is −5.0%; in series [2] (96 mg/day topiramate group), −4.8%; in series [2] (192 mg/day topiramate group), −6.3%; in series [2] (384 mg/day topiramate group), −6.3%. Also, the “most frequent adverse events” value in series [2] (64-384 mg daily, 24 weeks) is “paresthesia, somnolence, and difficulty with memory, concentration, and attention”. Besides, the “percentages of patients who lost at least 5% or 10% of body weight compared with placebo” value in series [2] (64-384 mg daily, 24 weeks) is listed as “Greater percentages of topiramate-treated patients lost at least 5% or 10% of body weight compared with placebo”. In addition, the “side effects (paresthesia, taste impairment and psychomotor disturbances) reported by patients” value in series [3] (3 mg/week transnasally to the SPG) is recorded as “none of which was reported by patients in the presently-reported example”. Further, in series [3] (all patients, 3 mg/week transnasally to the SPG), the “regular headache pain (patient-reported)” value is “reduced in frequency and severity”. In addition, the “craving for food, nicotine, and alcohol (patient-reported)” value in series [3] (setting [5]) was “immediate reduction of craving for food, nicotine, and alcohol”. In addition, the “satiety (needing less food intake to feel full; patient-reported)” value in series [3] (setting [5]) is listed as “improved satiety”. Besides, the “patients with effective weight loss” value in series [3] (human patients, 1.5 mg per nostril (3 mg) transnasally to the SPG once per week for four weeks) is 100%. In addition, the “frequently observed side effects” value in series [4] was “paresthesia, taste impairment and psychomotor disturbances”.
